{
  "source": "patent US9546150B2",
  "about": "“Substituted quinazolin-4-ones for inhibiting ubiquitin specific protease 7” (HYBRIGENICS SA, priority 2011, dated 2017)",
  "target": "T1, USP5 (Homo sapiens, UniProt P45974)",
  "T1 sequence (P45974 1-858)": "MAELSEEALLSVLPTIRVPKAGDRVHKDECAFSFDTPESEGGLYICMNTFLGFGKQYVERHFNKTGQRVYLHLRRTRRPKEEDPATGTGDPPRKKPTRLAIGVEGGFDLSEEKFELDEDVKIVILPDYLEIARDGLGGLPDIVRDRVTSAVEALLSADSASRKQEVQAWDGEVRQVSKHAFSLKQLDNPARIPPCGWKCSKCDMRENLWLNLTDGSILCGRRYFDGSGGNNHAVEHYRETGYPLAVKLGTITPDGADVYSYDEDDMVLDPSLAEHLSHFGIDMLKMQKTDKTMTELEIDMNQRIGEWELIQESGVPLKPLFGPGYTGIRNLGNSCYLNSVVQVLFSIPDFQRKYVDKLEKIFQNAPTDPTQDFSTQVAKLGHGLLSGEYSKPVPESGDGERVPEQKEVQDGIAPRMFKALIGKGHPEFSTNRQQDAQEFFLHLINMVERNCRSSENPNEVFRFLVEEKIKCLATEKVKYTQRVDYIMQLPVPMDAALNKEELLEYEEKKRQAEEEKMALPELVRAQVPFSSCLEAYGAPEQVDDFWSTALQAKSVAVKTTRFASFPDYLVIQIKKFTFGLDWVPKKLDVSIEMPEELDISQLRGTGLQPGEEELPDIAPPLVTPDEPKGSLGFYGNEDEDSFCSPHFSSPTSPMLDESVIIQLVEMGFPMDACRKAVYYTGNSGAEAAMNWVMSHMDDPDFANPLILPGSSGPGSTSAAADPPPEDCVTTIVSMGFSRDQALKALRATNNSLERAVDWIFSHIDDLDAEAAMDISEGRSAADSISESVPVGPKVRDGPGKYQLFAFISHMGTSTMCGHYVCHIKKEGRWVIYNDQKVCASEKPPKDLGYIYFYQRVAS",
  "assay": "HAUbVS competition assay in HEK293 cell lysates, USP5",
  "type": "biochemical",
  "conditions": "12.5-200 μM",
  "protocol": "The HA-Ub-VS probe (Hemagglutin tag-Ubiquitin-Vinyl Sulfone) was used in this study to directly visualize the activity of all deubiquitinating enzymes from native proteomes.\nHEK293 cells were harvested and lysed on ice with a non denaturating buffer containing Tris pH7.4, 50 mM; NaCl, 150 mM; MgCl2, 5 mM; EDTA, 0.5 mM; DTT, 2 mM; ATP (adenosine triphosphate), 2 mM; NP40 (nonyl phenoxypolyethoxylethanol), 0.5% and glycerol, 10%. Samples were incubated at 4° C. for 1 hour and clarified. Proteins were then quantified by Bradford method (Bio-Rad Protein Assay). […] The ubiquitin labeling reaction was initiated by the addition of HA-Ub-VS (8 μg/ml) in labeling buffer (Tris pH7.6, 50 mM; MgCl2, 5 mM; EDTA, 0.5 mM; DTT, 2 mM; ATP, 2 mM; sucrose, 250 mM) and incubated at room temperature for 15 min. Samples were next heated at 100° C. for 10 minutes and briefly sonicated. They were resolved by SDS-polyacrylamide gel electrophoresis (SDS-PAGE), transferred to a nitrocellulose membrane and probed with antibodies against USP7, HA, UCH-L3, CYLD, USP8, USP5, USP10 and Stat3. […] Signals were detected by enhanced chemiluminescence (ECL; Amersham) according to the reagent manufacturer's instructions.",
  "data": [
    {"smiles": "CC(Cc1cccs1)C(=O)N1CCC(O)(Cn2cnc3ccccc3c2=O)CC1", "note": "(stereo not shown) [Example 5, 3-({4-hydroxy-1-[2-methyl-3-(thiophen-2-yl)propanoyl]piperidin-4-yl}methyl)-3,4-dihydroquinazolin-4-one]", "values": [
      {"measurement": "blocking of HAUbVS labeling of USP5", "value": "without any cross-reaction"}
    ]}
  ]
}
